Measured values from patent publication US20250235410A1, “WATER-SOLUBLE CANNABIDIOL MICROCAPSULES AND PREPARATION METHOD THEREOF” (Northeast Agricultural University, priority 2022, published 2025).

How the values were obtained:
[1] = Release in simulated intestinal juice; assay type: in vitro ADME; details: 1 h in simulated intestinal juice
Method: An appropriate amount of samples are weighed and released in simulated intestinal juice. Samples are taken according to the time gradient of 0.5, 1.0, 1.5, 2.0, 2.5 and 3.0 h, and the cumulative release rate of CBD is determined.

[2] = Influence of incandescent light on stability (retention rate of CBD); assay type: physicochemical; details: 15th day of incandescent light (25 W), 4 °C, sealed
Method: (§1) Determination of retention rate of CBD in MRPs-CBD microcapsules: the above method to determine CBD content in MRPs-CBD microcapsules is used to accurately determine the initial CBD content in MRPs-CBD microcapsules and the CBD content retained in microcapsules under different treatment methods, and the retention rate of CBD in microcapsules is calculated according to the following formula: […]
A proper amount of samples are weighed, sealed, placed under incandescent light (25 W) at 4° C. for 15 d, and taken out on the 1st, 3rd, 6th, 9th, 12th and 15th day respectively, and the retention rate of CBD is determined.

[3] = ABTS+ radical cation scavenging rate; assay type: biochemical; details: P<0.05
Method: (§2) The antioxidant activity of glycosylation product-based water-soluble cannabidiol microcapsules is analyzed through radical scavenging rate. The scavenging ability of 1,1-Diphenyl-2-picrylhydrazyl (DPPH) and, 2′-azino-bis (3-ethylbenzothiazoline-6-sulfonic acid (ABTS^+) radical cation is mainly studied.
Determination of ABTS^+ radical scavenging rate: 10 mg of ABTS and 2.9 mg of potassium persulfate are taken, dissolved in 10 mL of 0.01 mol/L sodium phosphate buffer, and stored in the dark at 25° C. for 15 h for later use. 2.5 mL ABTS solution is taken, added with 20 mL of 0.01 mol/L sodium phosphate buffer, and diluted with distilled water so that the absorbance at 734 nm is 0.7, to obtain an ABTS analysis solution. 1 mL of CBD with different concentrations and methanol solutions of microcapsules with different concentrations are taken respectively, added with 2 mL of above ABTS analysis solution to the test tube for reacting for 10 min, and then 95% ethanol is used as reference solution to read the absorbance value at 734 nm. The absorbance value of the sample mixed with ABTS analysis solution is marked as A, the absorbance value of the sample mixed with 95% ethanol solution is Ai, and the absorbance value of the single ABTS analysis solution is Aj. The calculation formula is as follows: […]

[4] = Release in simulated gastric juice; assay type: in vitro ADME; details: 1 h in simulated gastric juice
Method: An appropriate amount of samples are weighed and released in simulated gastric juice. Samples are taken according to the time gradient of 0.5, 1.0, 1.5, 2.0, 2.5 and 3.0 h, and the cumulative release rate of CBD is determined.

[5] = Influence of environmental pH value on stability (retention rate of CBD); assay type: physicochemical; details: 4 °C, 12 h
Method: as §1
A proper amount of samples are weighed and dissolved in distilled water, and the pH values of the solutions are adjusted as 1, 2, 3, 4, 5, 6, 7, 8, 9, 10, 11 and 12 respectively, and samples are placed in a sealed and dark environment at 4° C. for 12 h, then taken out and its retention rate of CBD is determined.

[6] = DPPH radical scavenging rate; assay type: biochemical; details: P<0.05
Method: as §2
Determination of DPPH radical scavenging rate: 1 mL of CBD with different concentrations, methanol solution of microcapsules with different concentrations and 4 mL of 0.1 mmol/L DPPH solution (DPPH dissolved in 95% ethanol) are mixed evenly, and kept in the dark for 30 min at room temperature. Using 95% ethanol as reference solution, the absorbance at 517 nm is read. The absorbance value of the sample mixed with DPPH ethanol solution is recorded as A, the absorbance value of the sample mixed with 95% ethanol solution is Ai, and the absorbance value of the single DPPH ethanol solution is Aj. The calculation formula is as follows: […]

[7] = Influence of temperature on stability (retention rate of CBD); assay type: physicochemical; details: 4-100 °C, sealed, dark, 12 h
Method: Determination of retention rate of CBD in MRPs-CBD microcapsules: the above method to determine CBD content in MRPs-CBD microcapsules is used to accurately determine the initial CBD content in MRPs-CBD microcapsules and the CBD content retained in microcapsules under different treatment methods, and the retention rate of CBD in microcapsules is calculated according to the following formula:
An appropriate amount of samples are weighed, placed in a sealed and dark environment at 4° C., 25° C., 37° C., 50° C., 80° C. and 100° C. for 12 h and taken out, and the retention rate of CBD is determined.

[8] = Influence of oxygen on stability (retention rate of CBD); assay type: physicochemical; details: 15th day, dark, aerobic
Method: as §1
An appropriate amount of samples are weighed, placed at 4° C. and 25° C. for 15 days in the dark and aerobic conditions, and taken out at on 1st, 3rd, 5th, 7th, 9th, 12th and 15th day to determine the retention rate of CBD. See FIG. 8A and FIG. 8B for the test results.

## C=C(C)[C@@H]1CCC(C)=C[C@H]1c1c(O)cc(CCCCC)cc1O [unencapsulated CBD, Cannabidiol]
[1]
  fate of CBD in simulated intestinal juice: completely digested and degraded
[2]
  retention rate of CBD: 24.53±1.56%
[3]
  ABTS+ scavenging rate, change with increase of CBD concentration: increase significantly
[4]
  fate of CBD in simulated gastric juice: completely digested and degraded
[5]; environmental pH increases from 1 to 6
  retention rate of CBD, trend: increase significantly
[5]; environmental pH increases from 8 to 12
  retention rate of CBD, trend: decrease significantly
[6]
  DPPH scavenging rate, change with increase of CBD concentration: increase significantly
[7]
  retention rate of CBD, trend with increase of temperature: continuous downward trends
[8]; 4 °C
  retention rate of CBD: 43.87±1.83%
[8]; 25 °C
  retention rate of CBD: 38.85±1.76%
